Literature values in US5948887A, “Polypeptides that include conformation-constraining groups which flank a protein--protein interaction site” (Virginia Commonwealth University, priority 1997, dated 1999).
Where a SMILES comes first, the peptide text is derived from it.

System: receptors of sweet tasting papillae
Conditions: comparison value

For `COC(=O)[C@H](Cc1ccccc1)NC(=O)[C@@H](N)CC(=O)O` [aspartame] (H-Asp-Phe-OMe), the “times sweeter than sugar” value is given as 160 times.
